Data published in US12343326B2, “Psychoactive medicines and their use for treating psychiatric and neurological conditions and disorders” (Transcend Therapeutics, Inc., priority 2021, dated 2025).

Key:
Experiment in all cases: β-arrestin based GPCR screen (PathHunter / GPCRmax), antagonist mode
168 GPCRs [1] = target: 168 GPCRs (Homo sapiens, UniProt P48146)
168 GPCRs [2] = target: 168 GPCRs (Homo sapiens, UniProt O00574)
168 GPCRs [3] = target: 168 GPCRs (Homo sapiens, UniProt P30988); details: Antagonist
168 GPCRs [4] = target: 168 GPCRs (Homo sapiens, UniProt Q13324)
168 GPCRs [5] = target: 168 GPCRs (Homo sapiens, UniProt P47871); details: GCGR
168 GPCRs [6] = target: 168 GPCRs (Homo sapiens, UniProt P28566); details: HTR1E
168 GPCRs [7] = target: 168 GPCRs (Homo sapiens, UniProt P41145)
168 GPCRs [8] = target: 168 GPCRs (Homo sapiens, UniProt Q99788); details: CMKLR1, Antagonist
168 GPCRs [9] = target: 168 GPCRs (Homo sapiens, UniProt P25103)
168 GPCRs [10] = target: 168 GPCRs (Homo sapiens, UniProt P47901); details: AVPR1B, Antagonist
168 GPCRs [11] = target: 168 GPCRs (Homo sapiens, UniProt P41587)
168 GPCRs [12] = target: 168 GPCRs (Homo sapiens, UniProt P30411); details: BDKRB2, Antagonist
168 GPCRs [13] = target: 168 GPCRs (Homo sapiens, UniProt P08908); details: HTR1A
168 GPCRs [14] = target: 168 GPCRs (Homo sapiens, UniProt O95977)
168 GPCRs [15] = target: 168 GPCRs (Homo sapiens, UniProt P30874)
168 GPCRs [16] = target: 168 GPCRs (Homo sapiens, UniProt P32302)
168 GPCRs [17] = target: 168 GPCRs (Homo sapiens, UniProt P46091)
168 GPCRs [18] = target: 168 GPCRs (Homo sapiens, UniProt P43088); details: PTGFR
168 GPCRs [19] = target: 168 GPCRs (Homo sapiens, UniProt P21452)
168 GPCRs [20] = target: 168 GPCRs (Homo sapiens, UniProt P51582)
168 GPCRs [21] = target: 168 GPCRs (Homo sapiens, UniProt Q15722); details: LTB4R
168 GPCRs [22] = target: 168 GPCRs (Homo sapiens, UniProt P41586); details: ADCYAP1R1, Antagonist
Sequence of 168 GPCRs (Homo sapiens, UniProt P41586) (P41586 21-468): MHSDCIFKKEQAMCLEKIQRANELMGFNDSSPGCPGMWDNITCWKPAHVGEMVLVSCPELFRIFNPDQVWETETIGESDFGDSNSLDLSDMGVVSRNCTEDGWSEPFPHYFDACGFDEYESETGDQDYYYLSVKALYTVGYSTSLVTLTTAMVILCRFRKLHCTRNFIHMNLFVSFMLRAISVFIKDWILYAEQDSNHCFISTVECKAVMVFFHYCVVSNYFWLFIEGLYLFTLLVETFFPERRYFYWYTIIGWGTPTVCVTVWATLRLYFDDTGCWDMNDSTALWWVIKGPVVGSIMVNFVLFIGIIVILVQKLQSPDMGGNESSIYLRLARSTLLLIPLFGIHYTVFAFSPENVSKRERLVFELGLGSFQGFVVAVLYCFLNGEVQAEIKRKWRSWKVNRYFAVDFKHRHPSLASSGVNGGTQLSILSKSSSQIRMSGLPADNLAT

Sequence of 168 GPCRs (Homo sapiens, UniProt P30988) (P30988 25-474): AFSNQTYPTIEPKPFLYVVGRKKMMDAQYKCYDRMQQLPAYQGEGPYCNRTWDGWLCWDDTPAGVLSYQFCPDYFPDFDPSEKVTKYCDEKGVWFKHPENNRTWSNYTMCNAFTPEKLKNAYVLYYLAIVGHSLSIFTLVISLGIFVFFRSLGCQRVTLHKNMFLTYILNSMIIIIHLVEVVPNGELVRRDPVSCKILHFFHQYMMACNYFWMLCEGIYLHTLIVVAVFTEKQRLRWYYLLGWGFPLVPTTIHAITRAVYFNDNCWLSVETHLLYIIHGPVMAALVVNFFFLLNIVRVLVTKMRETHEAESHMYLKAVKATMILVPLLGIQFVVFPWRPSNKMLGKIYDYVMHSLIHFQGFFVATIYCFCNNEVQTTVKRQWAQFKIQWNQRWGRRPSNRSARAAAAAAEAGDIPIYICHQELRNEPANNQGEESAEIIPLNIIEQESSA
Sequence of 168 GPCRs (Homo sapiens, UniProt Q15722) (Q15722 whole entry): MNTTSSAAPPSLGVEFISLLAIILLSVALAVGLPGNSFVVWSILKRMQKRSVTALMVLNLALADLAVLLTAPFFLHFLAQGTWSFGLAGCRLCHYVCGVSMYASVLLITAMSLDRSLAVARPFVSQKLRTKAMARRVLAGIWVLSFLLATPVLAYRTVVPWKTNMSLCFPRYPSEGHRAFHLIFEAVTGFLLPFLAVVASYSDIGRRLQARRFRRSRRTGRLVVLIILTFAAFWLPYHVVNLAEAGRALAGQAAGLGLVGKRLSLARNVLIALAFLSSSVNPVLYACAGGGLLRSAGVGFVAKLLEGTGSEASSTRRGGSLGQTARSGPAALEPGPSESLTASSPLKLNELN
Sequence of 168 GPCRs (Homo sapiens, UniProt O00574) (O00574 whole entry): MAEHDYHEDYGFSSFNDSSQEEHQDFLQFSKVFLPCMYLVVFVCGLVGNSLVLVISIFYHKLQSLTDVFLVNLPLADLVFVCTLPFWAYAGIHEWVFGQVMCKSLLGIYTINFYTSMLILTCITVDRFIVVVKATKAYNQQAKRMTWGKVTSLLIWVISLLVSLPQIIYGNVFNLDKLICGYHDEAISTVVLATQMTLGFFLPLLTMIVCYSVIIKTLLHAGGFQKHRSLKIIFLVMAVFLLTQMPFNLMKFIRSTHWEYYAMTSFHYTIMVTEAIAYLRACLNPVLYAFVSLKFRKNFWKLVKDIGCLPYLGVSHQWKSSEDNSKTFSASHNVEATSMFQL
Sequence of 168 GPCRs (Homo sapiens, UniProt P43088) (P43088 whole entry): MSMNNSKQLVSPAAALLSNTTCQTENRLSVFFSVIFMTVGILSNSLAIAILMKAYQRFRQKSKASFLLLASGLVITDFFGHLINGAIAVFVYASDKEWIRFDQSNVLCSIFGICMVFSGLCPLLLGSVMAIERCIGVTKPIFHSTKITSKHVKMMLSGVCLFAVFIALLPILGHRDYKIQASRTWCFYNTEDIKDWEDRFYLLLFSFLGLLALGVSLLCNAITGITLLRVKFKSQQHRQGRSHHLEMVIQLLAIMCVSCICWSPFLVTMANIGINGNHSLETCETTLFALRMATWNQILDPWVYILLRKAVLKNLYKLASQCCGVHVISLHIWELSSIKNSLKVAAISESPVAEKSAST
Sequence of 168 GPCRs (Homo sapiens, UniProt P47901) (P47901 whole entry): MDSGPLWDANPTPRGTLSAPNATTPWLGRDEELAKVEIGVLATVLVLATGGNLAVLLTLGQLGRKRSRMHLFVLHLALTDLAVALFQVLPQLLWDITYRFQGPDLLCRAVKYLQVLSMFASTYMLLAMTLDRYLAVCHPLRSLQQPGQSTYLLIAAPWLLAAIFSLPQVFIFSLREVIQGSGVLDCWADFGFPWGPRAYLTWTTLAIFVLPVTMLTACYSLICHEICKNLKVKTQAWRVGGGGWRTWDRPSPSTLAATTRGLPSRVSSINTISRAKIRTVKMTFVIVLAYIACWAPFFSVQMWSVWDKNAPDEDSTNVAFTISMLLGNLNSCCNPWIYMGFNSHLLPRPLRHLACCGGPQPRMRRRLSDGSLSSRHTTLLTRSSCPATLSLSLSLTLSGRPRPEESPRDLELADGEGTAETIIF
Sequence of 168 GPCRs (Homo sapiens, UniProt P25103) (P25103 whole entry): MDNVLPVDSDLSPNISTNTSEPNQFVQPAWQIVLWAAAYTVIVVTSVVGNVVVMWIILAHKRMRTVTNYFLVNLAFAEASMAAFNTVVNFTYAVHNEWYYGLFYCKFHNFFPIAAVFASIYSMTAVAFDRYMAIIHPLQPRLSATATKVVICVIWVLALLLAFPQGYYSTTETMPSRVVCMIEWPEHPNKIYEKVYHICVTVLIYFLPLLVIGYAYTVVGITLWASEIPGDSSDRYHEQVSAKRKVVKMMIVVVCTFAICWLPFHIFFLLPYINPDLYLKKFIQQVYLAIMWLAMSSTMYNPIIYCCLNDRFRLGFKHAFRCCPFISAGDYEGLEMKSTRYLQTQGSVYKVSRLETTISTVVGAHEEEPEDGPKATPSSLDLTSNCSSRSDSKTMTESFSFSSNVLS
Sequence of 168 GPCRs (Homo sapiens, UniProt P41145) (P41145 whole entry): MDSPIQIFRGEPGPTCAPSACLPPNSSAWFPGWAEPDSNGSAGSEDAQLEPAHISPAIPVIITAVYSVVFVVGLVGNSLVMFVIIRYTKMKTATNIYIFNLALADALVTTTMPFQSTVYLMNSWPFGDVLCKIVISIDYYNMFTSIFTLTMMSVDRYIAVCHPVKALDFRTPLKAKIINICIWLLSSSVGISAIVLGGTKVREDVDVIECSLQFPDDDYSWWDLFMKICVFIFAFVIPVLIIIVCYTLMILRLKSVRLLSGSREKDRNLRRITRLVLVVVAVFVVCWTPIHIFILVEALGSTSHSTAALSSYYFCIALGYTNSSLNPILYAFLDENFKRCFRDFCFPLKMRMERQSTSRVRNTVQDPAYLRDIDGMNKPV
Sequence of 168 GPCRs (Homo sapiens, UniProt Q99788) (Q99788 whole entry): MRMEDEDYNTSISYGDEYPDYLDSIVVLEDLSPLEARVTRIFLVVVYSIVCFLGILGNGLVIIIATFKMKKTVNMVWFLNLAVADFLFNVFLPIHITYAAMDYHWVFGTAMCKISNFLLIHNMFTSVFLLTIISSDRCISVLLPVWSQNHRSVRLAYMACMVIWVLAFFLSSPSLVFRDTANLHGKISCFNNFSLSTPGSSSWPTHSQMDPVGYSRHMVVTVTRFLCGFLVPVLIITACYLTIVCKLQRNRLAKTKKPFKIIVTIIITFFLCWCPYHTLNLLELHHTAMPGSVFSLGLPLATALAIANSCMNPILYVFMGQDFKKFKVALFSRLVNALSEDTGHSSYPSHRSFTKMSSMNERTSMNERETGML
Sequence of 168 GPCRs (Homo sapiens, UniProt P48146) (P48146 whole entry): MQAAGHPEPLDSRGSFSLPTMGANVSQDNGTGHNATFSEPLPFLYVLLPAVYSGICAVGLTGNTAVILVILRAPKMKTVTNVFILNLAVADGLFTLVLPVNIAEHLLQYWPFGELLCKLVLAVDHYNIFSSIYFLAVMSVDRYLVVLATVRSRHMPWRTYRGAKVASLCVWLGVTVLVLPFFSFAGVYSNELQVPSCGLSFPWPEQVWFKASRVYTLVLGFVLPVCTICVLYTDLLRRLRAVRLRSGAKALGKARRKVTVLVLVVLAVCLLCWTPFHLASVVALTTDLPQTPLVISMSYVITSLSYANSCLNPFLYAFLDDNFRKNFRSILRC
Sequence of 168 GPCRs (Homo sapiens, UniProt P28566) (P28566 whole entry): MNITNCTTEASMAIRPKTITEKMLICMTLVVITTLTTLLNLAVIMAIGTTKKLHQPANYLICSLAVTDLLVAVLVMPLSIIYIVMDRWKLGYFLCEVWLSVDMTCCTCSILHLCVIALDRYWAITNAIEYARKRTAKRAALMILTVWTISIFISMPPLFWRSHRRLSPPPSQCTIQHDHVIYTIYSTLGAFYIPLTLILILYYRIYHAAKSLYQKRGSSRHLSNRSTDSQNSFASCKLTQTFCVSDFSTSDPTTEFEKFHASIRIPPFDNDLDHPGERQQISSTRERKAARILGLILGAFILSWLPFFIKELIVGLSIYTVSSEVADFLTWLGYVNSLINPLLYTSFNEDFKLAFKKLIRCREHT
Sequence of 168 GPCRs (Homo sapiens, UniProt P41587) (P41587 24-438): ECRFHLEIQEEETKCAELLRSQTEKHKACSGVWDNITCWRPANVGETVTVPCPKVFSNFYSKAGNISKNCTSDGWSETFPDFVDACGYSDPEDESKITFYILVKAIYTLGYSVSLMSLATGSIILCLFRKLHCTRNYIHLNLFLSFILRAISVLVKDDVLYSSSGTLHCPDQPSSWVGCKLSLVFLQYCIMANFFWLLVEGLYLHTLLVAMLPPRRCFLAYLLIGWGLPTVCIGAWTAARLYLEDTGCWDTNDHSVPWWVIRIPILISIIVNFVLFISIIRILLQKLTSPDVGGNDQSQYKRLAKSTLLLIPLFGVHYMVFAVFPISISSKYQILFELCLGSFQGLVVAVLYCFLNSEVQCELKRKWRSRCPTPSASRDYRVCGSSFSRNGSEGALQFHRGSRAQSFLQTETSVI

Question: For `CNC(C)C(=O)c1ccc2c(c1)OCO2` (stereo not drawn) [methylone, 3,4-methylenedioxy-N-methylcathinone], which activity at 10 µM (168 GPCRs [1]; NPBWR2, Antagonist mode, 10 uM) is on record?
Answer: -14%

Question: What about the activity at 1 µM (168 GPCRs [1]; NPBWR2, Antagonist, 1 uM) of the same compound?
Answer: -14.1%

Question: What about the activity at 10 µM (168 GPCRs [2]; CXCR6, Antagonist mode, 10 uM) of the same compound?
Answer: 12.6%

Question: And the activity at 1 µM (168 GPCRs [2]; CXCR6, Antagonist, 1 uM)?
Answer: 27.2%

Question: And the activity at 1 µM (168 GPCRs [3]; CALCR-RAMP2)?
Answer: -10.6%

Question: And the activity at 10 µM (168 GPCRs [3]; CALCR-RAMP2)?
Answer: -19.6%

Question: What about the activity at 1 µM (168 GPCRs [3]; CALCR-RAMP3) of the same compound?
Answer: -8.9%

Question: What about the activity at 10 µM (168 GPCRs [3]; CALCR-RAMP3) of the same compound?
Answer: 3.3%

Question: And the activity at 1 µM (168 GPCRs [3]; CALCR)?
Answer: 5.4%

Question: And the activity at 10 µM (168 GPCRs [3]; CALCR)?
Answer: -4.4%

Question: And the activity at 10 µM (168 GPCRs [4]; CRHR2, Antagonist mode, 10 uM)?
Answer: -0.3%

Question: And the activity at 1 µM (168 GPCRs [4]; CRHR2, Antagonist, 1 uM)?
Answer: -2%

Question: And the activity at 10 µM (168 GPCRs [5]; Antagonist mode, 10 uM)?
Answer: -7.7%

Question: And the activity at 1 µM (168 GPCRs [5]; Antagonist, 1 uM)?
Answer: -16%

Question: What about the activity at 10 µM (168 GPCRs [6]; Antagonist mode, 10 uM) of the same compound?
Answer: 13.2%

Question: And the activity at 1 µM (168 GPCRs [6]; Antagonist, 1 uM)?
Answer: 7.6%

Question: And the activity at 10 µM (168 GPCRs [7]; OPRK1, Antagonist mode, 10 uM)?
Answer: 10.4%

Question: What about the activity at 1 µM (168 GPCRs [7]; OPRK1, Antagonist, 1 uM) of the same compound?
Answer: 11.8%

Question: What about the activity at 1 µM (168 GPCRs [8]; 1 uM) of the same compound?
Answer: -0.2%

Question: What about the activity at 10 µM (168 GPCRs [8]; 10 uM) of the same compound?
Answer: -5.6%

Question: And the activity at 10 µM (168 GPCRs [9]; TACR1, Antagonist mode, 10 uM)?
Answer: 8.9%

Question: And the activity at 1 µM (168 GPCRs [9]; TACR1, Antagonist, 1 uM)?
Answer: 15.2%

Question: What about the activity at 1 µM (168 GPCRs [10]; 1 uM) of the same compound?
Answer: 9.8%

Question: What about the activity at 10 µM (168 GPCRs [10]; 10 uM) of the same compound?
Answer: 3.5%

Question: And the activity at 10 µM (168 GPCRs [11]; VIPR2, Antagonist mode, 10 uM)?
Answer: -2.6%

Question: And the activity at 1 µM (168 GPCRs [11]; VIPR2, Antagonist, 1 uM)?
Answer: -1.5%

Question: And the activity at 1 µM (168 GPCRs [12]; 1 uM)?
Answer: 7.3%

Question: What about the activity at 10 µM (168 GPCRs [12]; 10 uM) of the same compound?
Answer: -2.6%

Question: And the activity at 10 µM (168 GPCRs [13]; Antagonist mode, 10 uM)?
Answer: -6.4%

Question: What about the activity at 1 µM (168 GPCRs [13]; Antagonist, 1 uM) of the same compound?
Answer: -5.2%

Question: And the activity at 10 µM (168 GPCRs [14]; EDG6, Antagonist mode, 10 uM)?
Answer: 7.8%

Question: What about the activity at 1 µM (168 GPCRs [14]; EDG6, Antagonist, 1 uM) of the same compound?
Answer: 13.2%

Question: And the activity at 10 µM (168 GPCRs [15]; SSTR2, Antagonist mode, 10 uM)?
Answer: -4.2%

Question: What about the activity at 1 µM (168 GPCRs [15]; SSTR2, Antagonist, 1 uM) of the same compound?
Answer: -0.4%

Question: And the activity at 10 µM (168 GPCRs [16]; CXCR5, Antagonist mode, 10 uM)?
Answer: -15.1%

Question: And the activity at 1 µM (168 GPCRs [16]; CXCR5, Antagonist, 1 uM)?
Answer: -4.3%

Question: What about the activity at 10 µM (168 GPCRs [17]; GPR1, Antagonist mode, 10 uM) of the same compound?
Answer: 7.4%

Question: What about the activity at 1 µM (168 GPCRs [17]; GPR1, Antagonist, 1 uM) of the same compound?
Answer: 4.4%

Question: What about the activity at 10 µM (168 GPCRs [18]; Antagonist mode, 10 uM) of the same compound?
Answer: 0%

Question: What about the activity at 1 µM (168 GPCRs [18]; Antagonist, 1 uM) of the same compound?
Answer: 0.9%

Question: And the activity at 10 µM (168 GPCRs [19]; TACR2, Antagonist mode, 10 uM)?
Answer: 9.1%

Question: And the activity at 1 µM (168 GPCRs [19]; TACR2, Antagonist, 1 uM)?
Answer: 10%

Question: What about the activity at 10 µM (168 GPCRs [20]; P2RY4, Antagonist mode, 10 uM) of the same compound?
Answer: 17.5%

Question: What about the activity at 1 µM (168 GPCRs [20]; P2RY4, Antagonist, 1 uM) of the same compound?
Answer: 15.1%

Question: And the activity at 10 µM (168 GPCRs [21]; Antagonist mode, 10 uM)?
Answer: -5.2%

Question: And the activity at 1 µM (168 GPCRs [21]; Antagonist, 1 uM)?
Answer: 3.5%

Question: What about the activity at 1 µM (168 GPCRs [22]; 1 uM) of the same compound?
Answer: 13.6%

Question: And the activity at 10 µM (168 GPCRs [22]; 10 uM)?
Answer: 12.5%
